According to paper PMC6099768, “Application of Docking Analysis in the Prediction and Biological Evaluation of the Lipoxygenase Inhibitory Action of Thiazolyl Derivatives of Mycophenolic Acid” (Molecules : A Journal of Synthetic Chemistry and Natural …, 2018):
Where two headings read alike, the source gives them in different places.

Target: T1, soybean LOX type 1b (sLOX-1) (Glycine max, UniProt P08170)
T1 sequence (P08170 1-839): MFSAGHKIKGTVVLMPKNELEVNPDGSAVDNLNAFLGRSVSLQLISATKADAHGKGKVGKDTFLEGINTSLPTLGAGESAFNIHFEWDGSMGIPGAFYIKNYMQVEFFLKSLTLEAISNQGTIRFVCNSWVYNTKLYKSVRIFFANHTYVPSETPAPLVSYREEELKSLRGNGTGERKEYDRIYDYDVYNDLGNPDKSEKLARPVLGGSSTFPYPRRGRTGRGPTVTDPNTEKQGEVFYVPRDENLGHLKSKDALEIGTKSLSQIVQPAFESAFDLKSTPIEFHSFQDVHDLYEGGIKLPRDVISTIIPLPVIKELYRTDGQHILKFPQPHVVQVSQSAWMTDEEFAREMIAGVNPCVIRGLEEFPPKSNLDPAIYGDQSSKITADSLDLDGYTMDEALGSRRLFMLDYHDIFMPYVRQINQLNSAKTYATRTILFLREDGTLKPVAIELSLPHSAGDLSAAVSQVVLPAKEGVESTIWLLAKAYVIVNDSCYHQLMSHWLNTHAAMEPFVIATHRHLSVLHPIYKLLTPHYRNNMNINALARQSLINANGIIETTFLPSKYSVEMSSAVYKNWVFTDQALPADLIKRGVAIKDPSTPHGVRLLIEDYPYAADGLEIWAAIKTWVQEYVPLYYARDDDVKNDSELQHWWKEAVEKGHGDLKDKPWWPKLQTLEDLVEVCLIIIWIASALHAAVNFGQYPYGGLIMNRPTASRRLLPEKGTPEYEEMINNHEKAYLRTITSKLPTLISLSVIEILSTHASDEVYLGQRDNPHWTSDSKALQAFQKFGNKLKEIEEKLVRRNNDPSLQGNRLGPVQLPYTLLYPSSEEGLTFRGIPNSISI
Experiment: Soybean lipoxygenase inhibition study in vitro
Format: biochemical
Protocol: For the evaluation of lipoxygenase inhibition soybean LOX type 1b was used as reported previously. The selection was based on the structural and functional similarity of sLOX-1 with mammalian LOX [36, 50, 51, 52] which makes it the most commonly used LOX enzyme in drug screening, followed by sLOX-3 [40].
The assay conditions were as previously reported. Different compound concentrations were used for the calculation of IC50 values. The experiments were performed in triplicate.

[1] = soybean LOX type 1b, means of three determinations, deviation <10% of the mean, read-out: IC50
[2] = printed as negative values (−log of IC50 in µM), read-out: pIC50 (converted)
[3] = Table 6, unit inferred, same values as Table 5, read-out: IC50

Compound | IC50 [1] | IC50 [2] | IC50 [3]
COc1c(C)c2c(c(OC)c1C/C=C(\C)CCC(=O)Nc1ncc(C)s1)C(=O)OC2 [Compound 16, (E)-6-(4,6-Dimethoxy-7-methyl-3-oxo-1,3-dihydroisobenzofuran-5-yl)-4-methyl-N-(5-methylthiazol-2-yl)hex-4-enamide] | 90 µM |  | 
COc1c(C)c2c(c(OC)c1C/C=C(\C)CCC(=O)Nc1nccs1)C(=O)OC2 [Compound 15, (E)-6-(4,6-Dimethoxy-7-methyl-3-oxo-1,3-dihydroisobenzofuran-5-yl)-4-methyl-N-(thiazol-2-yl)hex-4-enamide] | 96.3 µM |  | 
COc1c(C)c2c(c(O)c1C/C=C(\C)CCC(=O)Nc1nc3c(s1)CCC3)C(=O)OC2 [Compound 14, (E)-N-(5,6-Dihydro-4H-cyclopenta[d]thiazol-2-yl)-6-(4-hydroxy-6-methoxy-7-methyl-3-oxo-1,3-dihydroisobenzofuran-5-yl)-4-methylhex-4-enamide] | 31.2 µM |  | 
COc1c(C)c2c(c(O)c1C/C=C(\C)CCC(=O)Nc1nc(-c3ccncc3)cs1)C(=O)OC2 [Compound 7, (E)-6-(4-Hydroxy-6-methoxy-7-methyl-3-oxo-1,3-dihydroisobenzofuran-5-yl)-4-methyl-N-(4-(pyridin-4-yl)thiazol-2-yl)hex-4-enamide] | 78.8 µM | 78.7 µM | 
COc1c(C)c2c(c(O)c1C/C=C(\C)CCC(=O)Nc1nc3c(s1)CCCCC3)C(=O)OC2 [Compound 13, (E)-6-(4-Hydroxy-6-methoxy-7-methyl-3-oxo-1,3-dihydroisobenzofuran-5-yl)-4-methyl-N-(5,6,7,8-tetrahydro-4H-cyclohepta[d]thiazol-2-yl)hex-4-enamide] | 25 µM |  | 
CCOC(=O)Cc1csc(NC(=O)CC/C(C)=C/Cc2c(O)c3c(c(C)c2OC)COC3=O)n1 [Compound 6, (E)-Ethyl-2-(2-(6-(4-hydroxy-6-methoxy-7-methyl-3-oxo-1,3-dihydroisobenzofuran-5-yl)-4-methylhex-4-enamido)thiazol-4-yl)acetate] | 30 µM | 30 µM | 
COc1c(C)c2c(c(O)c1C/C=C(\C)CCC(=O)Nc1ncc(C)s1)C(=O)OC2 [Compound 2, (E)-6-(4-Hydroxy-6-methoxy-7-methyl-3-oxo-1,3-dihydroisobenzofuran-5-yl)-4-methyl-N-(5-methylthiazol-2-yl)hex-4-enamide] | 22.5 µM | 22.5 µM | 22.5 µM
COc1c(C)c2c(c(O)c1C/C=C(\C)CCC(=O)Nc1nc(-c3ccccn3)cs1)C(=O)OC2 [Compound 9, (E)-6-(4-Hydroxy-6-methoxy-7-methyl-3-oxo-1,3-dihydroisobenzofuran-5-yl)-4-methyl-N-(4-(pyridin-2-yl)thiazol-2-yl)hex-4-enamide] | 2.5 µM | 2.5 µM | 2.5 µM
COc1c(C)c2c(c(O)c1C/C=C(\C)CCC(=O)Nc1nc3c(s1)CCCC3)C(=O)OC2 [Compound 12, (E)-6-(4-Hydroxy-6-methoxy-7-methyl-3-oxo-1,3-dihydroisobenzofuran-5-yl)-4-methyl-N-(4,5,6,7-tetrahydrobenzo[d]thiazol-2-yl)hex-4-enamide] | 61.2 µM |  | 
COc1ccc2nc(NC(=O)CC/C(C)=C/Cc3c(O)c4c(c(C)c3OC)COC4=O)sc2c1 [Compound 11, (E)-6-(4-Hydroxy-6-methoxy-7-methyl-3-oxo-1,3-dihydroisobenzofuran-5-yl)-N-(6-methoxybenzo[d]thiazol-2-yl)-4-methylhex-4-enamide] | 156 µM | 156 µM | 156 µM
COc1c(C)c2c(c(O)c1C/C=C(\C)CCC(=O)Nc1nc(C)cs1)C(=O)OC2 [Compound 4, (E)-6-(4-Hydroxy-6-methoxy-7-methyl-3-oxo-1,3-dihydroisobenzofuran-5-yl)-4-methyl-N-(4-methylthiazol-2-yl)hex-4-enamide] | 31.2 µM | 31.3 µM | 31.2 µM
CCOC(=O)c1sc(NC(=O)CC/C(C)=C/Cc2c(O)c3c(c(C)c2OC)COC3=O)nc1C [Compound 5, (E)-Ethyl-2-(6-(4-hydroxy-6-methoxy-7-methyl-3-oxo-1,3-dihydroisobenzofuran-5-yl)-4-methylhex-4-enamido)-4-methylthiazole-5-carboxylate] | 22.5 µM |  | 22.5 µM
COc1c(C)c2c(c(O)c1C/C=C(\C)CCC(=O)Nc1nc3ccccc3s1)C(=O)OC2 [Compound 10, (E)-N-(Benzo[d]thiazol-2-yl)-6-(4-hydroxy-6-methoxy-7-methyl-3-oxo-1,3-dihydroisobenzofuran-5-yl)-4-methylhex-4-enamide] | 90 µM | 89.9 µM | 
COc1c(C)c2c(c(O)c1C/C=C(\C)CCC(=O)Nc1nc(C)c(C)s1)C(=O)OC2 [Compound 3, (E)-N-(4,5-Dimethylthiazol-2-yl)-6-(4-hydroxy-6-methoxy-7-methyl-3-oxo-1,3-dihydroisobenzofuran-5-yl)-4-methylhex-4-enamide] | 43.7 µM | 43.8 µM | 
COc1c(C)c2c(c(O)c1C/C=C(\C)CCC(=O)Nc1nc(-c3cccnc3)cs1)C(=O)OC2 [Compound 8] | 90 µM | 89.9 µM | 90 µM
COc1c(C)c2c(c(O)c1C/C=C(\C)CCC(=O)Nc1nccs1)C(=O)OC2 [Compound 1, (E)-6-(4-Hydroxy-6-methoxy-7-methyl-3-oxo-1,3-dihydroisobenzofuran-5-yl)-4-methyl-N-(thiazol-2-yl)hex-4-enamide] | 26.3 µM | 26.2 µM | 
